This passage reports IC50 results from BindingDB's records for doi:10.1111/cbdd.12812 (Yueyang Vocational Technical College, 2016).

As usually defined, the IC50 is the midpoint of a concentration-inhibition curve. Lower therefore signals inhibition by little substance.

This test has as its target T1, Aromatase (Homo sapiens, UniProt P11511).
T1 sequence (P11511 whole entry): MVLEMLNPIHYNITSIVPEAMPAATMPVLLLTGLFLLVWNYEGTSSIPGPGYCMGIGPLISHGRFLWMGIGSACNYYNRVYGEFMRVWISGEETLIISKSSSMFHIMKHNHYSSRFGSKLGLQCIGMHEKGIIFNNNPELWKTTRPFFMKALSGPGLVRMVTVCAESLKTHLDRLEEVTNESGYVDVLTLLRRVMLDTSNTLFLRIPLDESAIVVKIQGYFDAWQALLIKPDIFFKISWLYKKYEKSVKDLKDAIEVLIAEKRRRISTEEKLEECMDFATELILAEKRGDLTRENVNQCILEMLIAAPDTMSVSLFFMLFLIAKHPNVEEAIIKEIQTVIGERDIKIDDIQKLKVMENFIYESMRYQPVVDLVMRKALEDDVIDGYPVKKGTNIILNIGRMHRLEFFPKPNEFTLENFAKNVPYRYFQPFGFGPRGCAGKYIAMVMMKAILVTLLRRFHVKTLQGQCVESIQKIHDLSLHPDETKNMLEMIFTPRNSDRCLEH
Nature of the test: Aromatase Inhibition Activity Assay. Conditions: pH 7.5; 37 °C. Here is the method:
Briefly, concentrated stock solutions of test compounds were prepared in acetonitrile. Hundred microliters of samples containing serial dilutions of test compounds (dilution factor of 3 between samples) and cofactor mixture (0.4 U/mL glucose-6-phosphate dehydrogenase; 16.2 μm NADP+; 825 μm MgCl2; 825 μm glucose-6- phosphate; 50 μm citrate buffer, pH 7.5) was prepared in a 96-well plate. […] The plate was covered and incubated for 30 min at 37 °C. Seventy-five microliters of 0.5 m Tris base was then added to stop the reaction, and the fluorescence of the formed de-methylated MFC was measured with a plate reader (Spectra Max Gemini; Molecular Devices, Sunnyvale, CA, USA).
As for `Cc1c(C(=O)CSC#N)c(=O)n(-c2ccccc2)n1C` [1,2-Dihydro-1,5-dimethyl-2-phenyl-4-thiocyanatoacetyl-3H-pyrazol-3-one (2)], half-maximal inhibition (IC50) was put at 6.7 nM. For `Cc1c(-c2csc(Cl)n2)c(=O)n(-c2ccccc2)n1C` [2-Chloro-4-[4-(1,2-dihydro-1,5-dimethyl-2-phenyl-3-oxo-3H-pyrazol-4-yl)thiazole (26)], the half-inhibitory concentration (IC50) is 3.3 nM. As to `Cc1c(C(=O)c2sc(=N)sc2Nc2ccccc2)c(=O)n(-c2ccccc2)n1C` [4-[4-(1,2-Dihydro-1,5-dimethyl-2-phenyl-3-oxo-3H-pyrazol-4-ylcarbonyl)]-5-phenylamino-1,3-dithiole-2-imine (7)], the IC50 was found to be 4.6 nM. This IC50 and that of the compound before are within 1.5-fold of each other. The same measure for `Cc1c(C(=O)c2nn3c(nc(=O)c4ccccc43)s2)c(=O)n(-c2ccccc2)n1C` [2-[4-(1,2-Dihydro-1,5-dimethyl-2-phenyl-3-oxo-3H-pyrazol-4-yl]-1,3,4-thiazolo[3,2-a]-1,3-quinazolin-2-one (10b)]: 3.9 nM; for `Cc1c(-c2csc(O)n2)c(=O)n(-c2ccccc2)n1C` [2-Hydroxy-4-([4-(1,2-dihydro-1,5-dimethyl-2-phenyl-3-oxo-3H-pyrazol-4-yl)thiazole (25)]: 3.5 nM.
